Structure (SMILES) | melting point
COc1cc2c(cc1C=O)C(C)(C(F)(F)F)OCC2 (stereo not given) | 82 to 93 °C
O=S(=O)(c1ccc2ccccc2c1)n1ccc2ccccc21 | 103 to 105 °C
NNc1nncc(-c2ccccc2)n1 | 144 to 146 °C
CN(C)C(=C[N+](=O)[O-])NCc1ccc(Cl)cc1 | 133 to 135 °C
O=C1CSc2nc(Oc3ccc(N4CCNCC4)cc3)ncc2N1 | 309 to 312 °C
CC(C)(C)NC(=O)NC1(C#N)CCCC1 | 206 to 207 °C
C=CCOc1ccc(C)c2c1C(=O)CC2 | 89 to 92 °C
CC1(C)Oc2cc(C#N)c(C#N)cc2O1 | 202 to 203 °C
COc1cc(OC)cc(-c2nc(CCl)co2)c1 | 85 to 86 °C
CC(=O)C(C(C)=O)C(=O)NS(=O)(=O)c1ccc(C)cc1 | 137 to 140 °C
CC(=O)n1nc(C)c(Oc2cc(F)cc(C#N)c2)c1C | 109 to 111 °C
CC(C)(S)C(=O)NC(=O)[C@@H](N)CS | 124 to 125 °C
CC(F)(F)c1ccc2c(c1)C=C(C(=O)O)C(C(F)(F)F)O2 (stereo not given) | 156 to 158 °C
CC(C)C[C@@H]1NC(=O)OC1(c1ccccc1)c1ccccc1 | 212 to 214 °C
c1ccc2c(c1)OCCO2 | 117 to 118 °C
COC(=O)COc1ccc(C(C)=O)c(OCCCBr)c1 | 67 to 70 °C
CC1=C(C)C(=O)N(C2CCC(O)CC2)C1=O (stereo not given) | 109 to 111 °C
CN(C)C(=O)NC(=O)C(C)(C)Br | 98 to 100 °C
COCc1cc(N2CCOCC2)ncn1 | 56 °C
CCOC(=O)c1ncn2c1CN(C)C(=S)c1ccccc1-2 | 164 to 165 °C
Cc1c(Cl)c(Oc2c(Cl)cc(C(F)(F)F)cc2Cl)nn1C(=O)NC(C)C | 109 to 111 °C
CCCCCC(O)C1C(=O)NC(C(=O)SCc2ccccc2)(C(O)C2C=CCCC2)C1(C)O (stereo not given) | 123 °C
O=C(Nc1cccc(Cl)c1)N1CCNC1=N[N+](=O)[O-] | 214 to 216 °C
CS(=O)(=O)c1ccc(/C(=C\C2CCCCC2)C(=O)O)cc1[N+](=O)[O-] | 244 to 247 °C

Structure (SMILES) | melting point
O=C(Cc1cccc2ccccc12)NC1CCC2(O)C3Cc4ccc(O)c5c4C2(CCN3CC2CC2)C1O5 (stereo not given) | 213 to 215 °C
COc1ccc(SSC)cc1 | 98 to 100 °C
COC(=O)c1[nH]nc2c1CCc1cc(OC)c(Br)cc1-2 | 240 to 241 °C
CCCCSCC(=O)c1cc2sc(=O)[nH]c2cc1Cl | 102 to 115 °C
O=C1CC2SCCCN12 (stereo not given) | 145 to 147 °C
c1ccc(-c2cnc(NC3CCC(CCN4CCN(c5ccccc5)CC4)CC3)nc2)cc1 (stereo not given) | 170 °C
CC12CC(F)C3C4CCC(=O)C=C4CC(CCCCCCl)C3C1CCC2=O (stereo not given) | 51 to 53 °C
COc1ccc2c(c1)CCCC21NC(=O)NC1=O (stereo not given) | 218 to 220 °C
N#Cc1cccc2c1COc1ccc(OCc3ccc4cc(F)c(Cl)cc4n3)cc1C2SCCC(=O)O (stereo not given) | 125 to 128 °C
Cc1c(N2C[C@@H](N)[C@@H](C(C)C)C2)c(F)cc2c(=O)c(C(=O)O)cn([C@@H]3C[C@@H]3F)c12 | 124 to 127 °C
Cc1cccc(C)c1NCCCC(=O)N(C(=O)c1ccc(Cl)cc1)[C@@H](Cc1ccccc1)C(=O)O | 153 to 155 °C
Nc1cc([N+](=O)[O-])c(Cl)cc1F | 82 to 83.5 °C
COc1ccc(C2(O)CCCN(Cc3ccccc3)C2)cc1 (stereo not given) | 58 °C
CCn1cc(C(=O)O)c(=O)c2cc(Cl)c(N3CCNCC3)cc21 | 228 to 232 °C
N[C@H]1CCN(c2cc3c(cc2F)c(=O)c(C(=O)O)cn3-c2nc[nH]n2)C1 | 250 to 260 °C
O=S1OC(c2ccc(F)cc2)C(Cn2cncn2)(c2ccc(Cl)cc2Cl)O1 (stereo not given) | 170 to 171 °C
COc1ccc2c(c1)S(=O)(=O)C(C#N)=C(C)N2 | 307 to 308 °C
Cc1ccccc1-c1c(NC(=O)Nc2ccc(F)cc2F)c(=O)oc2ccc(Cl)cc12 | 210 to 212 °C
O=C(CSCc1ccc(Cl)c(Cl)c1)NO | 75 to 76 °C
Nc1cn(-c2cccnc2)nc1C(F)(F)F | 112 to 115 °C
COc1ccc(C(C#Cc2ccccc2)CC(=O)Nc2nccs2)cc1OC1CCCC1 (racemic) | 142 to 144 °C
c1ccc(-c2cc3ccncc3[nH]2)cc1 | 222 to 224 °C
CNc1nc(Cl)ncc1[N+](=O)[O-] | 90 to 91 °C
O=C(Oc1ccc([N+](=O)[O-])cc1)c1cccc2c(Cl)c3ccccc3nc12 | 194 to 196 °C

Other lines, results leading:

melting point | Structure (SMILES)
> 220 °C | CCOC(=O)NN(C(=O)OCC)C1(c2ccc3c(c2)OCO3)C(=O)N(Cc2ccc(Cl)cc2)c2ccccc21 (stereo not given)
176 to 178 °C | COc1ccc(N2CCN(Cc3n[nH]c4c3Cc3ccccc3-4)CC2)cc1
152 to 153 °C | COc1cc(Nc2nccc(-c3ccc(NCCCN)nc3)n2)cc(OC)c1OC
94 to 96 °C | CC(=O)OCCC1CCN(CCCN2c3cc(OCc4ccccc4)ccc3Sc3c2cccc3S(=O)(=O)N(C)C)CC1
102 °C | CCOC(=O)c1cc(CC)sc1Nc1ccc(C(F)(F)F)cc1[N+](=O)[O-]
118 to 119 °C | C[C@@H]1Cc2cc3c(cc2C(c2ccc(N)cc2)=NN1c1ccccc1)OCO3
95 to 97 °C | Cc1cc(-c2ccc(F)cc2)co1
213 to 216 °C | O=C(ON1C(=O)CCC1=O)c1ccc(-c2ccc(S(=O)(=O)N(CCO)CCO)cc2)[nH]c1=O
138 to 140 °C | Clc1ccc(C2=CCc3cc(Br)cnc3O2)cc1Cl
145 to 146 °C | CCOC(=O)c1ccc(COc2cc(O)c(C(C)=O)cc2CC)cc1O
151 to 152 °C | OCc1c(CO)c2sc3ccccc3n2c1-c1ccc(Cl)cc1
64 to 67 °C | CC(C)(C)OC(=O)N1CCCC(CCN2C(=O)C3(COc4cc5c(cc43)OCO5)c3ccccc32)C1 (stereo not given)
85 to 90 °C | Cc1oc(-c2ccccc2)nc1CCOc1ccc(C[C@H](Nc2ccccc2C(=O)c2ccccc2)C(=O)O)cc1
69 to 70 °C | CCCNc1nc(OC)ccc1[N+](=O)[O-]
192 to 194 °C | Cc1cc2c(cc1C)-n1ccc(=O)nc1CC(c1ccc(-n3c(C)nc4cnccc43)cc1)=N2
57 to 59 °C | CCCCCCCCCCCCn1nnc(CN(Cc2ccccc2)C(=O)Nc2c(OC)cc(OC)cc2OC)n1
> 250 °C | O=C1N=NC(=O)c2c1[nH]c1cc(I)ccc21
200 to 202 °C | CCCC(=O)Oc1ccc2[nH]c(=O)c(-c3nnn(Cc4cccc(OCc5ccc6ccccc6n5)c4)n3)cc2c1
209 to 211 °C | CC(C)Cn1c(CNC(=O)OC(C)(C)C)c(-c2ccccc2)c2cc(-c3nc(C#N)cs3)ccc2c1=O
87 to 88 °C | CC(C)Cn1c(CO)c(-c2ccc(Cl)cc2)c2cc(OCc3ccccc3)ccc2c1=O
156 °C | Cc1c[nH]n(Cc2ccc(Cl)c(Cl)c2)c1=O
122 to 135 °C | CCc1nc2cc(C(=O)NC)c(Cl)cc2n1-c1ccc(CCNC(=O)NS(=O)(=O)c2ccc(C)cc2)cc1
122 to 125 °C | COc1ccc(N2CCN(c3c(C)c(C)c4c(c3C)CC(C)(CN3CCCCC3)O4)CC2)cc1 (stereo not given)
> 250 °C | O=S(=O)(Nc1ccc(Cl)nc1I)c1ccc2ncccc2c1
93 to 94.5 °C | CCOP(=O)(Cc1ccc(C(=O)N2CCc3ccccc32)cc1)OCC
132 °C | CCOC(=O)c1ccc(C(C(N)=O)C(C)c2cc(C)ccc2N2CCCCC2)cc1 (stereo not given)

melting point | Structure (SMILES)
122 to 124 °C | CS(=O)(=O)c1ccc(-c2cc(C(=O)CCCO[N+](=O)[O-])nn2C2CCCCC2)cc1
240 °C | FC(F)(F)c1cc(C(F)(F)F)n(-c2ccc(NCc3ccccc3Cl)cc2)n1
80 to 85 °C | CC(=O)Nc1ccc(S(=O)(=O)NCc2cc3c(ccc4cnn(C[C@H](C)N)c43)o2)cc1
80 to 84 °C | Cn1ncnc1COc1nc2c(-c3ccccc3)nncn2c1-c1cccc(Cl)c1
132 to 134 °C | COc1ccc(C(=O)CCC(C(=O)c2ccc(OCc3ccccc3)cc2)c2ccc(OC)cc2)cc1 (stereo not given)
> 330 °C | O=C(O)c1cccc(-c2cc3ccc(Cl)cc3[nH]c2=O)c1
140 to 141 °C | CCOP(=O)(CCOCn1cnc2c(OC)ncnc21)OCC
161 to 162 °C | Cc1oc(-c2ccccc2)nc1COc1ccc(CON=C(CCC(=O)O)c2ccncc2)cc1
> 300 °C | Cn1nnc2c(N)cc3nc(O)c(O)nc3c21
240 to 241 °C | CNNC(=O)c1ccc(C(=O)NNC)cc1
145 to 146 °C | CCOc1cccc(CC(=O)O)c1OCCn1cc(C(=O)NCc2ccc(Cl)cc2Cl)c(OCC)n1
123 to 126 °C | CC(C)Oc1cc(CCCOc2cc(CCC(=O)O)n(Cc3ccccc3)n2)n(Cc2ccc(Cl)cc2Cl)n1
87 to 88 °C | C=CCC(O)(CCCc1ccc(Cl)cc1)c1ccc(OCc2ccc3ccccc3n2)cc1 (stereo not given)
152 to 154 °C | COC(=O)CCC/C=C(/c1cc(C)c2on(C)c(=O)c2c1)c1cc(C)c2oc(=O)n(C)c2c1
115 to 117 °C | COc1ccc(S(=O)(=O)CC(C)(C)CS(=O)(=O)c2ccc(OC)cc2)cc1
33 to 35 °C | CCOC(=O)c1c(C)nc(Cl)c([N+](=O)[O-])c1NC(C)CC (stereo not given)
200 to 202 °C | N#CC1CN(C(=O)[C@H](NC(=O)c2c[nH]c3ncc(-c4ccccc4)nc23)C2CC2)C1
231 to 233 °C | Cc1cc(-c2sc(N3CCN(CC4CC4)C3=O)nc2C)n[nH]1
214 to 216 °C | Nc1n[nH]c(-c2ccccc2)c1CC(=O)O
171 to 173 °C | Cc1cc(Oc2ccc(NC(=O)N3CCc4ccccc4CC3)cn2)ccc1Cl
254 to 256 °C | CCOP(=O)(O)Cc1nc2nc[nH]c2c2nc(-c3ccc(C(C)(C)C)cc3)nn12
291 °C | Cc1cc2c(O)n(CCc3ccc(C(=O)N[C@@H](CCC(=O)O)C(=O)O)cc3)cnc-2n1
231 to 232 °C | CN(C)C(=O)Cc1nc(-c2ccncc2)nc2c1c1ccc(Cl)cc1n2C
84 to 85 °C | Cc1cccc(-c2nc(C(C)C)[nH]c2-c2ccc(F)c(-c3cnn(C(C)C)c3)c2)n1
174 to 176 °C | Cc1ccc2nc(-c3ccccc3C#N)ncc2c1
154 to 156 °C | CS(=O)(=O)c1ccc(-c2cnn(CC(F)(F)F)c(=O)c2Nc2ccccc2)cc1
